Data on 8 compounds can be found in patent EP0437336B1, “Biophosphoryl hydrazines and their use as pesticides” (priority 1990, dated 1991).

Converted amounts (≈) assume the structure as drawn. Like-named read-outs stand apart in the source and are kept apart here. Some results are limits rather than exact numbers.

Series [1] relates to southern corn rootworm, Diabrotica undecimpunctata howardi. Conditions: at-planting soil application.
For another series, the system named is Two-Spotted Spider Mite. The experiment in a line: Biological Method D: Foliar Insecticidal Activity Test, mite test. It is filed as in vivo, Tetranychus urticae. Further details: key to LC50 TSM: I = inactive at concentration listed. As to conditions: Two-Spotted Spider Mite; for LC50 TSM: Method D foliar test; for LC50: Tetranychus urticae, foliar, compounds a-r, read-out: LC 50 TSM.

Series [2] deals with southern corn rootworm, Diabrotica undecimpunctata howardi. The experiment in a line: Biological Method A: Corn Rootworm Screening Test (treated non-aggressive soil). Conditions: soil concentration giving 90% mortality, 10 days at 27°C.
The next series concerns Mexican Bean Beetle. The experiment in a line: Biological Method D: Foliar Insecticidal Activity Test, Mexican Bean Beetle test. It is filed as in vivo, Epilachna varivestis. Further details: key to LC50 BB 96 hrs / LC50 BB 48 hrs.: I = inactive at concentration listed. As to conditions: Mexican Bean Beetle; for LC50: Epilachna varivestis.
Series [3] concerns southern corn rootworm, Diabrotica undecimpunctata howardi. Conditions: Diabrotica undecimpunctata, in Zea mays, foliar, 336 h, read-out: foliar systemic nonagressive Method B crw % control at 0.56 kg/ha (0.5 lb/acre).
Series [4] concerns Japanese beetle (Popillia japonica ) eggs. The experiment in a line: Biological Method E: Turf Grub Insecticidal Activity Test. It is filed as in vivo. As to conditions: soil incorporation. The protocol:
Biological Method E: Turf Grub Insecticidal Activity Test
These will give soil concentrations of […] (1.6, 0.8, 0.4, and 0.2 pounds per acre), respectively.
Ten milliliters of test solution were incorporated into 250 ml of moistened soil (clay loam, 90% : humus soil, 10%) and allowed to air in an uncapped pint jar for about 2 hours. After airing, a small amount of seed mixture containing equal parts of redtop (Agrostis alba ) and white clover (Trifolium repens ) was incorporated into the soil. Two 50 ml quantities of soil were placed into dep 88.72 cm³ (3 ounce) ointment tin cans.
Ten Japanese beetle (Popillia japonica ) eggs were placed into the soil in each can and the can capped with its tined lid. Treatments were held for 23 days at 30 degrees Centigrade.
Upon termination, the soil was sieved to isloate the grubs. The percent mortality was determined for each concentration.

Series [5] deals with Green Peach Aphid. The experiment in a line: Biological Method D: Foliar Insecticidal Activity Test, aphid test. Type of series: in vivo, Myzus persicae. Further details: key: I = inactive at concentration listed.
The test system of series [6] is Southern Armyworm. Description: Biological Method D: Foliar Insecticidal Activity Test, Southern Armyworm test. Type of series: in vivo, Spodoptera eridania. Further details: key: I = inactive at concentration listed.
Series [7] deals with Boll Weevil. The experiment in a line: Biological Method D: Foliar Insecticidal Activity Test, boll weevil test. Further details: key: I = inactive at concentration listed. Type of series: in vivo, Anthonomous grandis.
Series [8] concerns Boll Weevil. The series is described as above. It is filed as in vivo, Anthonomous grandis. Further details: key: I = inactive at concentration tested. Conditions: compounds a-r. The protocol: (§1) Biological Method D: Foliar Insecticidal Activity Test
(§2) In evaluating the foliar insecticidal activity of the compounds of this invention against insects and mites, the following test procedures were employed.
(§3) Not all compounds were tested at each of the several concentrations stated above. Test concentrations of a compound were selected as those most likely to differentiate dose response of a particular compound toward a particular test insect.
(§4) Initial evaluations were made on one or more of the following pests:
For the boll weevil test, 10 adult weevils were placed in a 0.24 ℓ (0.5 pint) glass Mason jar containing a small cube of apple. The weevils were confined to the jar by fiberglass screen mesh secured by a screw-type rim cap. The jars were then sprayed with the test solution using a rotating turntable; directing the spray through the mesh into the jar. The percentage killed was determined after forty-eight and ninety six hours.
(§5) The mortalities obtained in this manner were plotted on logarithmic probability paper.
(§6) The rotating turntable consists of a fixed, continuously operating spray nozzle under which targets are rotated at a fixed speed and distance. If the target is a Petri dish (such as for the bean beetle, armyworm, mite, or aphid tests), the distance from the nozzle is 38.1 cm (15 inches). If the target is a Mason jar (such as for the boll weevil test), the distance from the nozzle is 17.8 cm (7 inches). The nozzle is located 8 inches from the rotating shaft. The targets on individual platforms revolve around the shaft at 1 revolution per 20 seconds but only a brief portion of this time occurs in the spray path. Targets pass only once under the nozzle and then are removed to drying hoods.
(§7) The nozzle used is a 1/4 JCO Spraying Systems (Wheaton, Illinois) air atomizing nozzle equipped with a No. 2850 fluid cap and a No. 70 air cap. At the 68.95 x 10³ Pa gauge (10 psig) air pressure used and with liquid siphon feed, 1.89 ℓ/hr [0.5 GPH (gallons per hour)] are delivered in a round spray pattern with a 21 degree spray angle. Targets are misted with spray droplets to the point that the droplets coalesce to form a uniform thin film insufficient to drown test organisms.

The test system of series [9] is Green Peach Aphid. Description: Biological Method D: Foliar Insecticidal Activity Test, aphid test. Type of series: in vivo, Myzus persicae. Further details: key: I = inactive at concentration tested. As to conditions: compounds a-r. How it is done:
as §1, §2, §3, §4
For the aphid test, infested broccoli (Brassica oleracea italica var. DiCicco) leaves containing about 50 aphids were placed in a Petri dish lid on a moistened piece of cotton. The leaves were then sprayed to thorough wetness with the test solution using a rotating turntable, held for twenty-four hours and then the percentage killed was determined.
as §5, §6, §7

The test system of series [10] is Southern Armyworm. Description: Biological Method D: Foliar Insecticidal Activity Test, Southern Armyworm test. It is filed as in vivo, Spodoptera eridania. Further details: key: I = inactive at concentration tested. Conditions: compounds a-r. The protocol: as §1, §2, §3, §4
For the Mexican Bean Beetle and Southern armyworm tests, individual lima bean (Phaseolus limeniss var. Woods' Prolific) leaves were placed on moistened pieces of filter paper in Petri dishes. The leaves were then sprayed with the test solution using a rotating turntable and allowed to dry. The dishes were then infested with 10 third instar larvae of either the Mexican Been Beetle or the Southern Armyworm. The dishes were then covered. Percent mortality was determined for each species and spray concentration at 48 and 96 hours after treatment.
as §5, §6, §7

Series [11] relates to Boll Weevil. Description: Biological Method D: Foliar Insecticidal Activity Test, boll weevil test. Type of series: in vivo, Anthonomous grandis. As to conditions: Boll Weevil; 96 hrs; compounds a-r.
Where [12] appears, read: Method D foliar test, 96 hrs, read-out: LC50 BB 96 hrs.
Where [13] appears, read: 23 days at 30 degrees Centigrade.
[14] abbreviates: foliar, 48 hrs, compounds a-r, read-out: LC 50 BB 48 hrs.
Where [15] appears, read: foliar, 96 hrs, compounds a-r, read-out: LC 50 BB 96 hrs.

Take `CCCOP(=S)(NNP(=S)(OCC)OCC(C)(C)C)OCCC` (centres unmarked) [Compound 41, N-(O,O-dipropylthiophosphoryl) N′-(O-ethyl O-neopentylthiophosphoryl) hydrazine]: the “secondary aggressive Method C crw LC50” value came out at 0.3 kg/ha in series [1] (rated 17 days post-infestation) and 0.27 lb/acre in series [1] (value in brackets). Also, the “LC50 TSM” value with Two-Spotted Spider Mite was “I”. The “primary nonagressive Method A crw LC90” value in series [2] came out at 0.06 ppm. The LC50 is 62 µg/mL (≈ 153 µM) with Mexican Bean Beetle (Method D foliar test, 48 hrs, read-out: LC50 BB 48 hrs.) and 78 µg/mL (≈ 192 µM) with Mexican Bean Beetle (setting [12]). The pest or weed control at 560 g/ha in series [3] stood at 31%. Besides, the LC95 in [4] (setting [13]) was less than 0.22 kg/ha; in series [4] (23 days, value in brackets), less than 0.2 pounds per acre. Moreover, the “LC50 GPA” value with Green Peach Aphid [5] is reported as “I”. Also, the “LC50 AW 48 hrs” value with Southern Armyworm [6] was “I”. In the series on Southern Armyworm [6], the “LC50 AW 96 hrs” value is “I”. Further, the “LC50 BW 48 hrs” value with Boll Weevil [7] is recorded as “I”. For the same compound, the “LC50 BW 96 hrs” value in the series with Boll Weevil [7] is listed as “I”.

Consider `CCOP(=S)(NNP(=S)(OCC)OC(C)C)OCC(C)(C)C` (centres unmarked) [Compound 46, N-(O-ethyl O-isopropylthiophosphoryl) N′-(O-ethyl O-neopentylthiophosphoryl) hydrazine], for which the “secondary aggressive Method C crw LC50” value in [1] (rated 17 days post-infestation) is 0.34 kg/ha; in series [1] (value in brackets), 0.30 lb/acre. Also, in the series on Two-Spotted Spider Mite, the “LC50 TSM” value is listed as “I”. The “primary nonagressive Method A crw LC90” value in [2] was found to be 0.08 ppm. For the same compound, the LC50 in the series on Mexican Bean Beetle (setting [12]) was determined as 45 µg/mL (≈ 115 µM). For the same compound, the “LC50 BB 48 hrs.” value in the series with Mexican Bean Beetle (Method D foliar test, 48 hrs) is “I”. Besides, the LC95 is reported as less than 0.22 kg/ha in series [4] (setting [13]) and less than 0.2 pounds per acre in [4] (23 days, value in brackets). Further, the “LC50 GPA” value in the series with Green Peach Aphid [5] was “I”. For the same compound, in the series with Southern Armyworm [6], the “LC50 AW 48 hrs” value is recorded as “I”. Besides, in the series on Southern Armyworm [6], the “LC50 AW 96 hrs” value is “I”. The “LC50 BW 48 hrs” value in the series with Boll Weevil [7] was “I”. Moreover, the “LC50 BW 96 hrs” value in the series with Boll Weevil [7] is reported as “I”.

On to `CCCOP(=S)(NN(C)P(=S)(OCC)OCC)OCCC` [d], for which the LC50 in the series with Two-Spotted Spider Mite is 150 µg/mL (≈ 396 µM). Besides, in the series with Boll Weevil [8], the “LC50 BW 48 hrs” value is on record as “I” and the “LC50 BW 96 hrs” value was “I”. Further, the LC50 in the series with Mexican Bean Beetle (setting [14]) came out at 150 µg/mL (≈ 396 µM). In the series with Mexican Bean Beetle (setting [15]), the LC50 was determined as 150 µg/mL (≈ 396 µM). Further, the “LC50 GPA” value with Green Peach Aphid [9] is “I”. In the series on Southern Armyworm [10], the “LC50 AW 48 hrs” value was “I” and the “LC50 AW 96 hrs” value is recorded as “I”.

In the case of `CCOP(=S)(OCC(C)(C)C)N(C)NP(=S)(OC)OC` (centres unmarked) [i, N-(O,O-dimethylthiophosphoryl) N′-(O-ethyl O-neopentylthiophosphoryl) N′-methyl hydrazine], the LC50 in the series on Two-Spotted Spider Mite worked out at 150 µg/mL (≈ 412 µM). Besides, in the series with Boll Weevil [8], the “LC50 BW 48 hrs” value is listed as “I” and the “LC50 BW 96 hrs” value was “I”. Also, the “LC50 GPA” value in the series with Green Peach Aphid [9] is “I”. Also, in the series on Southern Armyworm [10], the “LC50 AW 48 hrs” value is given as “I” and the “LC50 AW 96 hrs” value is “I”.

On to `CCOP(=O)(NN(C)P(=S)(OC)OC)SC(C)CC` (centres unmarked) [l, N-(O,O-dimethylthiophosphoryl) N'-(O-ethyl S-secbutyl chloro phosphoryl) N-methyl hydrazine], for which, in the series with Two-Spotted Spider Mite, the LC50 worked out at 660 µg/mL (≈ 1880 µM). Moreover, the “LC50 BW 48 hrs” value in the series with Boll Weevil [8] is “I”. Moreover, the “LC50 GPA” value with Green Peach Aphid [9] was “I”. Further, in the series with Southern Armyworm [10], the “LC50 AW 48 hrs” value is “I” and the “LC50 AW 96 hrs” value was “I”. Besides, the “LC50 BW 96 hrs” value in the series with Boll Weevil [11] is recorded as 740 ppm.

`CCOP(=S)(OCC)N(C)NP1(=S)OCC(C)(C)CO1` [n]: in the series on Boll Weevil [8], the “LC50 BW 48 hrs” value was “I” and the “LC50 BW 96 hrs” value is “I”. In addition, the LC50 with Mexican Bean Beetle (setting [14]) amounted to 150 µg/mL (≈ 414 µM). Moreover, the LC50 in the series with Mexican Bean Beetle (setting [15]) came to 150 µg/mL (≈ 414 µM). In the series on Green Peach Aphid [9], the “LC50 GPA” value is recorded as “I”. In addition, in the series on Southern Armyworm [10], the “LC50 AW 48 hrs” value is “I” and the “LC50 AW 96 hrs” value was “I”.

For the compound `CCOP(=S)(NN(C(=O)OC)P(=S)(OCC)OCC)OCC` [o], the values for the LC50 with Two-Spotted Spider Mite, in the series on Mexican Bean Beetle (setting [14]) and with Mexican Bean Beetle (setting [15]) were 150 µg/mL (≈ 380 µM), 52 µg/mL (≈ 132 µM) and 45 µg/mL (≈ 114 µM), respectively. Further, the “LC50 BW 48 hrs” value in the series with Boll Weevil [8] is on record as “I”. In the series on Green Peach Aphid [9], the “LC50 GPA” value is “I”. Moreover, in the series on Southern Armyworm [10], the “LC50 AW 48 hrs” value was “I”. Further, the “LC50 AW 96 hrs” value with Southern Armyworm [10] was “I”. Further, the “LC50 BW 96 hrs” value in the series on Boll Weevil [11] is listed as 740 ppm.

Turning to `CCOP(=S)(NN(C)P(=S)(OCC)OC(C)C)OCC` (centres unmarked) [q], the “LC50 BW 96 hrs” value with Boll Weevil [8] is recorded as “I”. For the same compound, the LC50 was 300 µg/mL (≈ 823 µM) with Mexican Bean Beetle (setting [14]) and 72 µg/mL (≈ 198 µM) with Mexican Bean Beetle (setting [15]). In addition, in the series with Green Peach Aphid [9], the “LC50 GPA” value was “I”. The “LC50 AW 48 hrs” value in the series with Southern Armyworm [10] is listed as “I”. Besides, the “LC50 AW 96 hrs” value in the series with Southern Armyworm [10] is “I”.
